Measurements as given in patent US7745651B2, “Cationic lipids and methods of use” (Protiva Biotherapeutics, Inc., priority 2004, dated 2010).

Experiment: 31P-NMR of DPPS/cationic lipid MLV, bilayer-to-hexagonal phase transition temperature
Type: physicochemical
Conditions: MLV of DPPS and cationic lipid 1:1 molar ratio, 10 mM sodium citrate pH 4
Procedure: ^31P Nuclear Magnetic Resonance Spectroscopy: Multilamellar vesicles (MLV) were prepared comprising DPPS and cationic lipid at a molar ratio of 1:1. This was accomplished by drying the lipids from chloroform solution, transferring to 10 mm NMR tubes, and hydrating in 1.5 mL of 10 mM sodium citrate, pH 4. Free induction decays (FIDs) corresponding to 1000 scans were obtained with a 3.0 μs, 60o pulse with a 1 s interpulse delay and a spectral width of 25000 Hz. A gated two-level proton decoupling was used to ensure sufficient decoupling with minimum sample heating. An exponential multiplication corresponding to 50 Hz of line broadening was applied to the FIDs prior to Fourier transformation. The sample temperature (+/−1° C.) was regulated using a Bruker B-VT1000 variable temperature unit. Chemical shifts were referenced to 85% phosphoric acid as an external standard.
The significance of saturation with respect to phase transition temperature was investigated using ^31P-NMR. […] By determining the temperature at which the conversion occurs, the relative ease with which the lipids form the HII phase, their ‘fusogenicity’, can be determined.
MLV were prepared using the anionic lipid DPPS in a 1:1 molar ratio with each cationic lipid. The ^31P-NMR spectra of the MLV were measured at various temperatures. […]

CCCCCCCCCCCCCCCCCC[N+](C)(C)CCCCCCCCCCCCCCCCCC [DSDMA, Distearyldimethylammonium]
bilayer-to-hexagonal (HII) phase transition temperature (Tc): > 50 °C
